Laboratory results reported in article doi:10.1101/2021.08.17.455204v3 (biorxiv, 2022).

Assays:
[1] = target: Na+/K+ ATPase alpha1 isoform from dog kidney (Canis lupus, UniProt P50997); assay: […]-ATP hydrolysis, ouabain-sensitive ATPase inhibition; type: biochemical
[2] = target: SERCA2a (guinea-pig cardiac SR microsomes) (Cavia porcellus, UniProt A0A286XD73); assay: […]-ATP hydrolysis; type: biochemical; conditions: 37 °C; normal guinea-pig heart SR microsomes; activation; PLN present
HMG-CoA Reductase = HMG-CoA Reductase (Homo sapiens, UniProt P04035); assay: biochemical; conditions: read-out: % inhibition
Monoamine Oxidase MAO-A = Monoamine Oxidase MAO-A (Homo sapiens, UniProt P21397); assay: biochemical; conditions: read-out: % inhibition
Monoamine Oxidase MAO-B = Monoamine Oxidase MAO-B (Homo sapiens, UniProt P27338); assay: biochemical; conditions: read-out: % inhibition
Peptidase, Renin = Peptidase, Renin (Homo sapiens, UniProt P00797); assay: biochemical; conditions: read-out: % inhibition
[3] = target: Protein Tyrosine Kinase, ABL1 (Homo sapiens, UniProt P00519); assay: biochemical; conditions: read-out: % inhibition
[4] = target: Protein Tyrosine Kinase, Src (Homo sapiens, UniProt P12931); assay: biochemical; conditions: read-out: % inhibition
Adenosine A1 = Adenosine A1 (Homo sapiens, UniProt P30542); assay: biochemical; conditions: read-out: % inhibition
Adenosine A2A = Adenosine A2A (Homo sapiens, UniProt P29274); assay: biochemical; conditions: read-out: % inhibition
Adrenergic α1A = Adrenergic α1A (Rattus norvegicus, UniProt P43140); assay: biochemical; conditions: read-out: % inhibition
Adrenergic α1B = Adrenergic α1B (Rattus norvegicus, UniProt P15823); assay: biochemical; conditions: read-out: % inhibition
Adrenergic α2A = Adrenergic α2A (Homo sapiens, UniProt P08913); assay: biochemical; conditions: read-out: % inhibition
Adrenergic β1 = Adrenergic β1 (Homo sapiens, UniProt P08588); assay: biochemical; conditions: read-out: % inhibition
Adrenergic β2 = Adrenergic β2 (Homo sapiens, UniProt P07550); assay: biochemical; conditions: read-out: % inhibition
Angiotensin AT1 = Angiotensin AT1 (Homo sapiens, UniProt P30556); assay: biochemical; conditions: read-out: % inhibition
Angiotensin AT2 = Angiotensin AT2 (Homo sapiens, UniProt P50052); assay: biochemical; conditions: read-out: % inhibition
Dopamine D1 = Dopamine D1 (Homo sapiens, UniProt P21728); assay: biochemical; conditions: read-out: % inhibition
Dopamine D2s = Dopamine D2s (Homo sapiens, UniProt P14416); assay: biochemical; conditions: read-out: % inhibition
Dopamine D3 = Dopamine D3 (Homo sapiens, UniProt P35462); assay: biochemical; conditions: read-out: % inhibition
Estrogen ERα = Estrogen ERα (Homo sapiens, UniProt P03372); assay: biochemical; conditions: read-out: % inhibition
Estrogen ERβ = Estrogen ERβ (Homo sapiens, UniProt Q92731); assay: biochemical; conditions: read-out: % inhibition
Histamine H1 = Histamine H1 (Homo sapiens, UniProt P35367); assay: biochemical; conditions: read-out: % inhibition
Muscarinic M2 = Muscarinic M2 (Homo sapiens, UniProt P08172); assay: biochemical; conditions: read-out: % inhibition
Muscarinic M3 = Muscarinic M3 (Homo sapiens, UniProt P20309); assay: biochemical; conditions: read-out: % inhibition
Muscarinic M5 = Muscarinic M5 (Homo sapiens, UniProt P08912); assay: biochemical; conditions: read-out: % inhibition
[5] = target: Nicotinic Acetylcholine α3β4 (Homo sapiens, UniProt P30926+P32297); assay: biochemical; conditions: read-out: % inhibition
Opiate μ (OP3, MOP) = Opiate μ (OP3, MOP) (Homo sapiens, UniProt P35372); assay: biochemical; conditions: read-out: % inhibition
Potassium Channel hERG = Potassium Channel hERG (Homo sapiens, UniProt Q12809); assay: in vitro; conditions: crude membrane preparations
Sigma σ1 = Sigma σ1 (Homo sapiens, UniProt Q99720); assay: biochemical; conditions: read-out: % inhibition
Sigma σ2 = Sigma σ2 (Rattus norvegicus, UniProt Q5U3Y7); assay: biochemical; conditions: read-out: % inhibition
[6] = target: Transporter, Norepinephrine (NET) (Homo sapiens, UniProt P23975); assay: biochemical; conditions: read-out: % inhibition
CYP450, 19 = CYP450, 19 (Homo sapiens, UniProt P11511); assay: biochemical; conditions: read-out: % inhibition
[7] = target: Peptidase, Angiotensin Converting Enzyme (Oryctolagus cuniculus, UniProt P12822); assay: biochemical; conditions: read-out: % inhibition
Progesterone PR-B = Progesterone PR-B (Homo sapiens, UniProt P06401); assay: biochemical; conditions: read-out: % inhibition
Androgen (Testosterone) = Androgen (Testosterone) (Homo sapiens, UniProt P10275); assay: biochemical; conditions: read-out: % inhibition
Insulin = Insulin (Rattus norvegicus, UniProt P15127); assay: biochemical; conditions: read-out: % inhibition
Glucocorticoid = Glucocorticoid (Homo sapiens, UniProt P04150); assay: biochemical; conditions: read-out: % inhibition
Aldosterone = Aldosterone (Rattus norvegicus, UniProt P22199); assay: biochemical; conditions: read-out: % inhibition
Chain of Aldosterone (P22199 whole entry): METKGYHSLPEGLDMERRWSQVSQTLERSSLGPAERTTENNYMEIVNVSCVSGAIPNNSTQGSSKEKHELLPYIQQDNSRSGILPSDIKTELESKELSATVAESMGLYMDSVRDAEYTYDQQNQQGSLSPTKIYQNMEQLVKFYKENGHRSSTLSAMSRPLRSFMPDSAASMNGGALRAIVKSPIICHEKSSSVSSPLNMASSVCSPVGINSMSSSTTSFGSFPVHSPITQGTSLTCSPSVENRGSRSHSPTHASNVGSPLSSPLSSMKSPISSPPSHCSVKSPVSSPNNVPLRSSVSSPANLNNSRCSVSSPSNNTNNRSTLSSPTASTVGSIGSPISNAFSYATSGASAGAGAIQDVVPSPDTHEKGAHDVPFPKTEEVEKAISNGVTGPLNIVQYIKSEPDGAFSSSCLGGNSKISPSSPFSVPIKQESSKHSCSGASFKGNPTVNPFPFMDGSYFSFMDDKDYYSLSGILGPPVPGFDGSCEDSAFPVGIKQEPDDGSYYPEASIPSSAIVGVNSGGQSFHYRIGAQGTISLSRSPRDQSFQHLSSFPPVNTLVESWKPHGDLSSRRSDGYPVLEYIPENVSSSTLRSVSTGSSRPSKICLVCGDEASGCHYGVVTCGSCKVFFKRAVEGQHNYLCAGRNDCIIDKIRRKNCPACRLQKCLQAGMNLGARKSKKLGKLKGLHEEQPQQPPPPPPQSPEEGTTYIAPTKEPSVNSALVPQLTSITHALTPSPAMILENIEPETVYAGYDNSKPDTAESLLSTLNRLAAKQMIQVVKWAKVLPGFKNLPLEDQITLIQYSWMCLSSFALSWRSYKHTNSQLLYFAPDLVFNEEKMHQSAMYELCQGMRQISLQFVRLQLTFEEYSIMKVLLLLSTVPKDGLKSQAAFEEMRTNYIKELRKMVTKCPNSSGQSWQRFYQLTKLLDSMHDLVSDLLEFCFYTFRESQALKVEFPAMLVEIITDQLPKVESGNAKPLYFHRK

Chain of Muscarinic M3 (P20309 whole entry): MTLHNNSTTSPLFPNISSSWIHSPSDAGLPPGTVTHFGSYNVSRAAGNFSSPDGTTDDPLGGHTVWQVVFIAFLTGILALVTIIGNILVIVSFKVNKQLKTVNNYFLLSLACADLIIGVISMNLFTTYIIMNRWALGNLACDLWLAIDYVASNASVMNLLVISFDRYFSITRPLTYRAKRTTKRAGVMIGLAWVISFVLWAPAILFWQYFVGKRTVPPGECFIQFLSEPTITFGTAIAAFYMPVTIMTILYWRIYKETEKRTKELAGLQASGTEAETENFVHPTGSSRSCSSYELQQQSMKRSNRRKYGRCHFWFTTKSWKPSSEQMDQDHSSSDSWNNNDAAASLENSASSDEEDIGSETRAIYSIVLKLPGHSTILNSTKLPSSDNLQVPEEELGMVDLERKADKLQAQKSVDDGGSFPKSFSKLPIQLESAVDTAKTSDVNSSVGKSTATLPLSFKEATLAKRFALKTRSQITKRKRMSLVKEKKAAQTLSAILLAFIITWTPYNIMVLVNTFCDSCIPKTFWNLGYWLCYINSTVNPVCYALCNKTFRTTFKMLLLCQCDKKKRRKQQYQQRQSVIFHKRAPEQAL
Chain of Androgen (Testosterone) (P10275 whole entry): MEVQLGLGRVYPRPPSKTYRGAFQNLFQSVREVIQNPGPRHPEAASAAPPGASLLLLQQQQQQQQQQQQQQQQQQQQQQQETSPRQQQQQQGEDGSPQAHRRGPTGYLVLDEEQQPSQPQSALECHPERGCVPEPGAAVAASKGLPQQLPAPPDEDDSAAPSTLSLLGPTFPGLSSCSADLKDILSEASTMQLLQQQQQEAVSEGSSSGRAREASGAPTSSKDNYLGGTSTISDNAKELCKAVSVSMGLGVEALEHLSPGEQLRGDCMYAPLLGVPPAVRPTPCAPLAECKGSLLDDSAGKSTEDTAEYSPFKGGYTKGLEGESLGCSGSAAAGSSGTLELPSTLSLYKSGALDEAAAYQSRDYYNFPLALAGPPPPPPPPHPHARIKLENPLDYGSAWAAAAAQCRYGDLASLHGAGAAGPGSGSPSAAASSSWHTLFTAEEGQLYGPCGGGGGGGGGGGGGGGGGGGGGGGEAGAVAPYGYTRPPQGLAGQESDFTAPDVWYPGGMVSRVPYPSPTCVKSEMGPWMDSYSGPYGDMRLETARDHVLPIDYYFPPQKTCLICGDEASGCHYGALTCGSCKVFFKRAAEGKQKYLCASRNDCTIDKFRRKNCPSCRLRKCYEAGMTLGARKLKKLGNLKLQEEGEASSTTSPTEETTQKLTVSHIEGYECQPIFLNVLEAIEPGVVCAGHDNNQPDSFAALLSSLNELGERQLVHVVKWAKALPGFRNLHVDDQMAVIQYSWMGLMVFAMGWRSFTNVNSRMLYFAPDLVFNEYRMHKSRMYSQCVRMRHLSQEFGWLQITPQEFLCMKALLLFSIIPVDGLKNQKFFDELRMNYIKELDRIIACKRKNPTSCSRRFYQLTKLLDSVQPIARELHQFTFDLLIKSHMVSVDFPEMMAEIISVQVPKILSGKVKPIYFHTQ
Chain of Angiotensin AT2 (P50052 whole entry): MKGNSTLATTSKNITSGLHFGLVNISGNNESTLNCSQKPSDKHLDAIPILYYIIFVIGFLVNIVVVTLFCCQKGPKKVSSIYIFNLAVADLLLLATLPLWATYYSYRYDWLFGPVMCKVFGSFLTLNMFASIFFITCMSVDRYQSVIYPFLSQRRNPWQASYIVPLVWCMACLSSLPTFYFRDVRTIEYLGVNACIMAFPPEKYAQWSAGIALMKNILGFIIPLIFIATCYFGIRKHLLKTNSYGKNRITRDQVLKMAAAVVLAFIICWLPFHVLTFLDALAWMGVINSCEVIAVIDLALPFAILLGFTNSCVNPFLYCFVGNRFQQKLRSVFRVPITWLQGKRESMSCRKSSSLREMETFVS
Chain of Glucocorticoid (P04150 whole entry): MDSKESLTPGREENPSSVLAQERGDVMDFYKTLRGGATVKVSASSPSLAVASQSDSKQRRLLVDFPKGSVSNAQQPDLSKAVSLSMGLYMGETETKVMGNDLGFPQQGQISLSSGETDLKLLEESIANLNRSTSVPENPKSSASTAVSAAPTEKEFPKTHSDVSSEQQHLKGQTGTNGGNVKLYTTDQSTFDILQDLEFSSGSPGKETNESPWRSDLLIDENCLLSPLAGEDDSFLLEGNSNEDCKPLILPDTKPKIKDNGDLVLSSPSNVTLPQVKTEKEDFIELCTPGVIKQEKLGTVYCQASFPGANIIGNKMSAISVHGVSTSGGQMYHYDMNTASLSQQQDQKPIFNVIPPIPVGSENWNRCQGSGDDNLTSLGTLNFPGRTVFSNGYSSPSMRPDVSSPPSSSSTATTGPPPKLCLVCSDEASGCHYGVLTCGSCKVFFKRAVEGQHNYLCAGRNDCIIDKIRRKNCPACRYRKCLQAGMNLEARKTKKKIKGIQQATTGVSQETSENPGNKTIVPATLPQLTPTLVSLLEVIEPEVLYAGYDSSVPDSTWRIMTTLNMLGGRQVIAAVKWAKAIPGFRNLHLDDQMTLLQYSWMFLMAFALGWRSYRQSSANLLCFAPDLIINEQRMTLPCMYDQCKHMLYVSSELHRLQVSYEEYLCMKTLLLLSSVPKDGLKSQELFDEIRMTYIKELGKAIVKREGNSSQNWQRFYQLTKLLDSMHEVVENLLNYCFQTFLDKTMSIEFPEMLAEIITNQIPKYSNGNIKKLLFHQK
Chain of CYP450, 19 (P11511 whole entry): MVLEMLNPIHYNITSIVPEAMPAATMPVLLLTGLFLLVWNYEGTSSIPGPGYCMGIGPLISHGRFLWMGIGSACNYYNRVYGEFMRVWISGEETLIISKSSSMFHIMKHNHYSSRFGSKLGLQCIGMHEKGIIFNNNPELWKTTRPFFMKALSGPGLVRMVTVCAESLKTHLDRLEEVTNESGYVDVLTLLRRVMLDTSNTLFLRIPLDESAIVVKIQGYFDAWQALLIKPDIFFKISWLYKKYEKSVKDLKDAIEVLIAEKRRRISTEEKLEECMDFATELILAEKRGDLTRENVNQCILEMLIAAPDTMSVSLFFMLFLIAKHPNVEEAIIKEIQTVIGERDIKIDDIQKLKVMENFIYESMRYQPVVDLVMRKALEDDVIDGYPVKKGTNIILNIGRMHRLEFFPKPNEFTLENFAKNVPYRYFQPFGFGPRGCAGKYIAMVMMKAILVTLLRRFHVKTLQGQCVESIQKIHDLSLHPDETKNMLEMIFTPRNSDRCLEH
Chain of Adenosine A2A (P29274 whole entry): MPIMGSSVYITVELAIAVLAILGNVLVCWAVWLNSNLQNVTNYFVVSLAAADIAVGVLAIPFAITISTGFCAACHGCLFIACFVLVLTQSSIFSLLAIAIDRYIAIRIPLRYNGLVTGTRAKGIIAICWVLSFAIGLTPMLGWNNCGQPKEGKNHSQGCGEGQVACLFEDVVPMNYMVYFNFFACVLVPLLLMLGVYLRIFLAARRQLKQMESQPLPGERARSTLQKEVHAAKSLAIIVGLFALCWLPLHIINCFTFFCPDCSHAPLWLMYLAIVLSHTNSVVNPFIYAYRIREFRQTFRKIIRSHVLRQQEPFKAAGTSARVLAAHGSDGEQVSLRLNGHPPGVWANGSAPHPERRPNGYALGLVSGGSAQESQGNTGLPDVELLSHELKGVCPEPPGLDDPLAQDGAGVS
Chain of Angiotensin AT1 (P30556 whole entry): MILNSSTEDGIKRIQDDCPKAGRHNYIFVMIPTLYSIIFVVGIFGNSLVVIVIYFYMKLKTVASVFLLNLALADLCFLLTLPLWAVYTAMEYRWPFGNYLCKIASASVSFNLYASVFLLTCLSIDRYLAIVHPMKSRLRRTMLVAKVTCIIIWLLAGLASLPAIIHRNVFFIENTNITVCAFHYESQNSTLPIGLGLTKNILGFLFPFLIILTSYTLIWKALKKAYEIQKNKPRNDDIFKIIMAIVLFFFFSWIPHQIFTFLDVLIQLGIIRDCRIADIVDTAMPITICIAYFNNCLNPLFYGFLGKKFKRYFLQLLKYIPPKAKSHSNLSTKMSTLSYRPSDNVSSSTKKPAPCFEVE

C[C@]12CCC(=NOCC(=O)O)C[C@@H]1[C@H](O)C[C@@H]1[C@@H]2CC[C@]2(C)C(=O)CC[C@@H]12 (mixture of isomers) [PST3093, (E,Z)-[(6-beta-hydroxy-17-oxoandrostan-3-ylidene)amino]oxyacetic acid]
IC50 [1]: > 100 µM
% reduction of KdCa at 100 nM [2]: ~ 20%
inhibition at 10 µM (HMG-CoA Reductase): -2%
inhibition at 10 µM (Monoamine Oxidase MAO-A): 2%
inhibition at 10 µM (Monoamine Oxidase MAO-B): -3%
inhibition at 10 µM (Peptidase, Renin): 6%
inhibition at 10 µM [3]: 3%
inhibition at 10 µM [4]: -1%
inhibition at 10 µM (Adenosine A1): -2%
inhibition at 10 µM (Adenosine A2A): -6%
inhibition at 10 µM (Adrenergic α1A): 2%
inhibition at 10 µM (Adrenergic α1B): 0%
inhibition at 10 µM (Adrenergic α2A): -5%
inhibition at 10 µM (Adrenergic β1): -4%
inhibition at 10 µM (Adrenergic β2): 7%
inhibition at 10 µM (Angiotensin AT1): -1%
inhibition at 10 µM (Angiotensin AT2): 7%
inhibition at 10 µM (Dopamine D1): 3%
inhibition at 10 µM (Dopamine D2s): 26%
inhibition at 10 µM (Dopamine D3): 1%
inhibition at 10 µM (Estrogen ERα): -6%
inhibition at 10 µM (Estrogen ERβ): 7%
inhibition at 10 µM (Histamine H1): -3%
inhibition at 10 µM (Muscarinic M2): -7%
inhibition at 10 µM (Muscarinic M3): 4%
inhibition at 10 µM (Muscarinic M5): 5%
inhibition at 10 µM [5]: 1%
inhibition at 10 µM (Opiate μ (OP3, MOP)): -5%
inhibition at 10 µM (Potassium Channel hERG): 10%
inhibition at 10 µM (Sigma σ1): 7%
inhibition at 10 µM (Sigma σ2): 12%
inhibition at 10 µM [6]: 4%
inhibition at 10 µM (CYP450, 19): 12%
inhibition at 10 µM [7]: 3%
inhibition at 10 µM (Progesterone PR-B): -15%
inhibition at 10 µM (Androgen (Testosterone)): 3%
inhibition at 10 µM (Insulin): 6%
inhibition at 10 µM (Glucocorticoid): 8%
inhibition at 10 µM (Aldosterone): 5%
